Test results from ChEMBL document CHEMBL3632563, “Synthesis of natural phaeosphaeride A derivatives and an in vitro evaluation of their anti-cancer potential” (Bioorg Med Chem Lett, 2015).
Blank lines part the entries; values can stand above or below the compound they belong to. The source made the active and inactive calls. No cut-off for these calls is given here.

Columns and labels:
A549 [1] = assay: Cytotoxicity against human A549 cells assessed as decrease in cell viability at 25 to 100 uM after 48 hrs by SRB assay; assay type: functional, cell-based
A549 [2] = assay: Cytotoxicity against human A549 cells assessed as decrease in cell viability at 10 to 100 uM after 48 hrs by SRB assay; assay type: functional, cell-based; conditions: for EC50: A549, 48 h
A549 [3] = assay: Cytotoxicity against human A549 cells assessed as decrease in cell viability at 10 to 100 uM after 48 hrs by MTT assay; assay type: functional, cell-based
[4] = target: Signal transducer and activator of transcription 3 (Homo sapiens, UniProt P40763); assay: Inhibition of STAT3 (unknown origin) assessed as reduction in STAT3-DNA binding
[5] = Growth inhibition of human U266 cells; assay type: functional, cell-based; conditions: U-266

Chain of Signal transducer and activator of transcription 3 (P40763 whole entry): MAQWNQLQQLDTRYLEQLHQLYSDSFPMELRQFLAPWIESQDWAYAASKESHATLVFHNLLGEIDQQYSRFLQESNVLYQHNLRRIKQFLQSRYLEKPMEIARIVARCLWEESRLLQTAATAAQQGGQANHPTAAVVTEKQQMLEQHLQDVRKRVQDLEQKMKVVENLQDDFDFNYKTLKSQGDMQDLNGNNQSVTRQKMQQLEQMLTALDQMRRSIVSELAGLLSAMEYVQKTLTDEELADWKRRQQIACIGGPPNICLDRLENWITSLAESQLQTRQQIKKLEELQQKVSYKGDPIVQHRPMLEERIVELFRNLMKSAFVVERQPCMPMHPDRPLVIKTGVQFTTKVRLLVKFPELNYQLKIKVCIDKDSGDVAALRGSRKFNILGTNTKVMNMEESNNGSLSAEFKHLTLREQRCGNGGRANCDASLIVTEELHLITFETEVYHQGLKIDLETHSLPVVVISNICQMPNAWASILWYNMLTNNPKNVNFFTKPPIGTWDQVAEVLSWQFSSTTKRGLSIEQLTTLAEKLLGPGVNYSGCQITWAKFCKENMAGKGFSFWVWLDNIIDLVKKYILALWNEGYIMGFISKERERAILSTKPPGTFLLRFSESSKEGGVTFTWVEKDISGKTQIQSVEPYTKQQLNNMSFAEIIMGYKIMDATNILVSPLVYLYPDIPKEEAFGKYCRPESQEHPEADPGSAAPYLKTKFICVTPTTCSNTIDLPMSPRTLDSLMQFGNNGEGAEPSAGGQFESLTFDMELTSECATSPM

Structure (SMILES): C=C1C2=C(C(=O)N1OC)[C@H](OC(C)=O)[C@@](C)(O)[C@H](CCCCC)O2
Activity (A549 [1]): Active | Activity (A549 [2]): Dose-dependent effect | EC50 (A549 [2]): 49 µM | Activity (A549 [3]): Active

Structure (SMILES): C=C1C2=C(C(=O)N1OC)[C@H](OC(=O)CCl)[C@@](C)(O)[C@H](CCCCC)O2
Activity (A549 [1]): Active | Activity (A549 [2]): Dose-dependent effect | EC50 (A549 [2]): 33 µM | Activity (A549 [3]): Active

Structure (SMILES): CO[C@@]12[C@H](COC(N)=O)C3=C(C(=O)C(C)=C(N)C3=O)N1C[C@@H]1N[C@@H]12 [MITOMYCIN]
EC50 (A549 [2]): 5.2 µM

Structure (SMILES): CCCCC[C@@H]1OC2=C(C(=O)NC2(COC)OC)[C@H](O)[C@@]1(C)O (some centres undefined)
Activity (A549 [2]): inactive | Activity (A549 [3]): inactive

IC50 [4]: 610 µM
Structure (SMILES): C=C1C2=C(C(=O)N1OC)[C@H](O)[C@@](C)(O)[C@H](CCCCC)O2
Activity (A549 [1]): Active | Activity (A549 [2]): Dose-dependent effect | EC50 (A549 [2]): 46 µM | EC50 [5]: 6.7 µM | Activity (A549 [3]): Active

Structure (SMILES): CCCCC[C@@H]1OC(/C(C)=N/OC)=C(C(=O)O)[C@H](O)[C@@]1(C)O
Activity (A549 [2]): inactive | Activity (A549 [3]): inactive
